# Source: patent US5804554A, “Calcium channel blocking polypeptides from filistata hibernalis” (priority 1995, dated 1998)
# Tested on: calcium channels
# Details: read-out: IC50 values for blocking calcium channels; rat cerebellar granule cells, fura2 fluorescence, 37° C.
compound,measurement,value
COc1ccc(CCN(C)CCCC(C#N)(c2ccc(OC)c(OC)c2)C(C)C)cc1OC (stereo not shown) [Verapamil],IC50,4.8 µM
